Source: ChEMBL document CHEMBL6092191, “Advancing Cancer Immunotherapy through Engineering New PD-L1 Degraders: A Comprehensive Study from Small Molecules to PD-L1-Specific Peptide-Drug Conjugates” (J Med Chem, 2024)
Calls of active or inactive are those of the source. The calls are words filed in the database; no cut-off is given here.

Key:
NCI-H1299 = assay: Effect on IFN-gamma-induced PD-L1 mRNA expression in human NCI-H1299 cells at 10 uM by qRT-PCR analysis; format: functional, cell-based
[1] = tested on: Lewis lung carcinoma cell line; assay: Anticancer activity against Lewis lung carcinoma cells xenografted in C57BL/6 mouse model assessed as decrease in Ki-67 level at 10 mg/kg, ip administered daily for 10 days by IHC analysis; format: functional, organism-based; settings: time 10.0 day
[2] = molecular target: COP9 signalosome complex subunit 5 (Homo sapiens) (UniProt Q92905); assay: Induction of PD-L1 degradation in […] cells incubated for 24 hrs by Western blot analysis; format: cell-based; settings: Lewis lung carcinoma cell line, dose <= 100.0 µM
COP9 signalosome complex subunit 5 (Homo sapiens), sequence (Q92905 2-334 limits assumed, one chain of several): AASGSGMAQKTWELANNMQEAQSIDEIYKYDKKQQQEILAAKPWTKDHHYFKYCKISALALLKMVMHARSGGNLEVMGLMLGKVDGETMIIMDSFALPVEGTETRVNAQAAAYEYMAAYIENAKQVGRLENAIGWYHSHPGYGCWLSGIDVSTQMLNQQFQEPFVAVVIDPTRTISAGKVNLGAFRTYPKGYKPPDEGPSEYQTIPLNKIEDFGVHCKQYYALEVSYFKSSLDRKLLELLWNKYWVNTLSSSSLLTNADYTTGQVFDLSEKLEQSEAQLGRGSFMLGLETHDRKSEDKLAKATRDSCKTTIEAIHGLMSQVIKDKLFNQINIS

HEK-293T = assay: Antiproliferative activity against HEK293T cells at 10 uM incubated for 4 days; format: toxicity, cell-based; settings: human, 96 h, time 4 day
[3] = Toxicity in C57BL/6 mouse model xenografted with […] cells assessed as obvious damage in spleen at 10 mg/kg, ip administered daily for 10 days by H and E staining based analysis; format: organism-based; settings: in vivo, 240 h, time 10 day
[4] = tested on: Lewis lung carcinoma cell line; assay: Antitumor T-cell immune response in Lewis lung carcinoma cells xenografted in C57BL/6 mouse model assessed as increase in IFN-gamma level in tumor at 10 mg/kg, ip administered daily for 10 days by ELISA; format: functional, organism-based; settings: time 10.0 day
PC-9 = assay: Antiproliferative activity against human PC-9 cells at 10 uM measured after 4 days by MTT assay; format: functional, cell-based; settings: time 4.0 day
[5] = molecular target: COP9 signalosome complex subunit 5 (Homo sapiens) (UniProt Q92905); assay: Induction of PD-L1 degradation in human NCI-H460 cells upto 40 uM in presence of chloroquine by Western blot analysis; format: cell-based
[6] = molecular target: COP9 signalosome complex subunit 5 (Homo sapiens) (UniProt Q92905); assay: Induction of IFN-gamma-induced PD-L1 degradation in human HCC827 cells at 10 uM incubated for 24 hrs by Western blot analysis; format: cell-based
[7] = molecular target: COP9 signalosome complex subunit 5 (Homo sapiens) (UniProt Q92905); assay: Induction of PD-L1 degradation in human NCI-H460 cells at 10 uM incubated for 24 hrs by Western blot analysis; format: cell-based
[8] = molecular target: COP9 signalosome complex subunit 5 (Homo sapiens) (UniProt Q92905); assay: Induction of PD-L1 degradation in human NCI-H460 cells upto 20 uM in presence of MG132 by Western blot analysis; format: cell-based
[9] = molecular target: COP9 signalosome complex subunit 5 (Homo sapiens) (UniProt Q92905); assay: Induction of IFN-gamma-induced PD-L1 degradation in human NCI-H1299 cells at 10 uM incubated for 24 hrs by Western blot analysis; format: cell-based
Mus musculus = assay: In vivo induction of PD-L1 degradation in […] lung carcinoma cells xenografted in C57BL/6 mouse model at 10 mg/kg, ip administered daily for 10 days by IHC analysis; format: functional, organism-based; settings: time 10.0 day
[10] = Toxicity in C57BL/6 mouse model xenografted with […] cells assessed as change in BUN level at 10 mg/kg, ip administered daily for 10 days; format: organism-based, Blood; settings: in vivo, 240 h, time 10 day
[11] = molecular target: COP9 signalosome complex subunit 5 (Homo sapiens) (UniProt Q92905); assay: Binding affinity to CSN5 in HEK293T cell lysate by Western blot analysis; format: subcellular
[12] = molecular target: COP9 signalosome complex subunit 5 (Homo sapiens) (UniProt Q92905); assay: Induction of PD-L1 degradation in human NCI-H460 cells at 10 uM by Western blot analysis; format: cell-based; settings: time <= 36.0 hrs
[13] = molecular target: COP9 signalosome complex subunit 5 (Homo sapiens) (UniProt Q92905); assay: Induction of PD-L1 degradation in human PC-9 cells assessed as reduction in green signal at 10 uM incubated for 24 hrs by immunofluorescence staining based analysis; format: cell-based
[14] = molecular target: COP9 signalosome complex subunit 5 (Homo sapiens) (UniProt Q92905); assay: Induction of PD-L1 degradation in […] cells at 10 uM by Western blot analysis; format: cell-based; settings: Lewis lung carcinoma cell line, time <= 36.0 hrs
NCI-H460 = assay: Effect on PD-L1 mRNA level in human NCI-H460 cells at 10 uM incubated for 24 hrs by qRT-PCR analysis; format: functional, cell-based
[15] = tested on: Lewis lung carcinoma cell line; assay: Antitumor T-cell immune response in Lewis lung carcinoma cells xenografted in C57BL/6 mouse model assessed as increase in CD3+ CD8+ infiltration in CD45+ T cells in tumor at 10 mg/kg, ip administered daily for 10 days by flow cytometry; format: functional, organism-based; settings: time 10.0 day
[16] = Toxicity in C57BL/6 mouse model xenografted with […] cells assessed as obvious damage in kidney at 10 mg/kg, ip administered daily for 10 days by H and E staining based analysis; format: organism-based; settings: in vivo, 240 h, time 10 day
[17] = Drug uptake in human PC-9 cells at 10 uM by fluorescence microscopy; format: ADME, cell-based; settings: pc-9, 10 µM
[18] = Toxicity in C57BL/6 mouse model xenografted with […] cells assessed as obvious damage in liver at 10 mg/kg, ip administered daily for 10 days by H and E staining based analysis; format: organism-based; settings: in vivo, 240 h, time 10 day
[19] = tested on: Lewis lung carcinoma cell line; assay: Anticancer activity against Lewis lung carcinoma cells xenografted in C57BL/6 mouse model at 10 mg/kg, ip administered daily for 10 days relative to control; format: functional; settings: 240 h, time 10 day, read-out: TGI
[20] = molecular target: COP9 signalosome complex subunit 5 (Homo sapiens) (UniProt Q92905); assay: Induction of PD-L1 degradation in human NCI-H460 cells assessed as PD-L1 ubiquitination by Western blot analysis; format: cell-based
[21] = molecular target: COP9 signalosome complex subunit 5 (Homo sapiens) (UniProt Q92905); assay: Induction of PD-L1 degradation in human NCI-H460 cells incubated for 24 hrs by Western blot analysis; format: cell-based; settings: dose <= 100.0 µM
[22] = tested on: Lewis lung carcinoma cell line; assay: Antitumor T-cell immune response in Lewis lung carcinoma cells xenografted in C57BL/6 mouse model assessed as increase in TNF-alpha level in tumor at 10 mg/kg, ip administered daily for 10 days by ELISA; format: functional, organism-based; settings: time 10.0 day
Lewis lung carcinoma = assay: Effect on PD-L1 mRNA level in Lewis lung carcinoma cells at 10 uM incubated for 24 hrs by qRT-PCR analysis; format: functional, cell-based; settings: Mus musculus
[23] = Toxicity in C57BL/6 mouse model xenografted with […] cells assessed as obvious damage in heart at 10 mg/kg, ip administered daily for 10 days by H and E staining based analysis; format: organism-based; settings: in vivo, 240 h, time 10 day
[24] = Toxicity in C57BL/6 mouse model xenografted with […] cells assessed as body weight loss at 10 mg/kg, ip administered daily for 10 days; format: organism-based; settings: in vivo, 240 h, time 10 day
[25] = Toxicity in C57BL/6 mouse model xenografted with […] cells assessed as change in AST level at 10 mg/kg, ip administered daily for 10 days; format: organism-based, Blood; settings: in vivo, 240 h, time 10 day
3T3-L1 = assay: Antiproliferative activity against mouse 3T3-L1 cells at 10 uM incubated for 4 days; format: toxicity, cell-based; settings: 3t3-l1, 96 h, time 4 day
[26] = molecular target: COP9 signalosome complex subunit 5 (Homo sapiens) (UniProt Q92905); assay: Induction of PD-L1 degradation in human PC-9 cells at 10 uM by Western blot analysis; format: cell-based; settings: time <= 36.0 hrs
[27] = Toxicity in C57BL/6 mouse model xenografted with […] cells assessed as change in ALT level at 10 mg/kg, ip administered daily for 10 days; format: organism-based, Blood; settings: in vivo, 240 h, time 10 day
[28] = tested on: Lewis lung carcinoma cell line; assay: Antitumor T-cell immune response in Lewis lung carcinoma cells xenografted in C57BL/6 mouse model assessed as increase in GrB level in tumor at 10 mg/kg, ip administered daily for 10 days by ELISA; format: functional, organism-based; settings: time 10.0 day
[29] = Antiproliferative activity against human HTori-3 cells at 10 uM incubated for 4 days; format: toxicity, cell-based; settings: htori-3, 96 h, time 4 day
HCC827 = assay: Effect on IFN-gamma-induced PD-L1 mRNA expression in human HCC827 cells at 10 uM by qRT-PCR analysis; format: functional, cell-based
[30] = tested on: Lewis lung carcinoma cell line; assay: Antitumor T-cell immune response in Lewis lung carcinoma cells xenografted in C57BL/6 mouse model assessed as increase in ratio of CD8+ to CD4+ T cells in tumor at 5 mg/kg, ip administered daily for 8 days by flow cytometry; format: functional, organism-based; settings: time 8.0 day

COc1cc2c(cc1OC)-c1cc3ccc(OC)c(OCCN)c3c[n+]1CC2.[Cl-]
Activity (NCI-H1299): inactive | Activity [1]: Active | Activity [2]: Dose-dependent-effect | Activity (HEK-293T): Non-toxic | Activity [3]: Non-toxic | Activity [4]: Active | Activity (PC-9): inactive | Activity [5]: Active | Activity [6]: Active | Activity [7]: Active; Most Effective Compound Among Pmt-O9 Derivatives | Activity [8]: inactive | Activity [9]: Active | Activity (Mus musculus): Active | Activity [10]: Non-toxic | Activity [11]: Active | Activity [12]: Time-dependent-effect | Activity [13]: Active | Activity [14]: Time-dependent-effect | Activity (NCI-H460): inactive | Activity [15]: Active | Activity [16]: Non-toxic | Drug uptake [17]: Time-dependent-effect | Activity [18]: Non-toxic | inhibition in vivo at 10 mg/kg [19]: 71% | Activity [20]: Active | Activity [21]: Dose-dependent-effect | Activity [22]: Active | Activity (Lewis lung carcinoma): inactive | Activity [23]: Non-toxic | Activity [24]: Non-toxic | Activity [25]: Non-toxic | Activity (3T3-L1): Non-toxic | Activity [26]: Time-dependent-effect | Activity [27]: Non-toxic | Activity [28]: Active | Activity [29]: Non-toxic | Activity (HCC827): inactive | Activity [30]: Active
